In ChEMBL document CHEMBL5604063, “ASAP - DENV-2 NS2B-NS3 protease fluorescence dose response” (2024):
Values joined by “and” are separate entries in the source; they are usually repeats but may differ in a detail not shown here. Equal entries are not always repeated.

Legend:
Genome polyprotein [1] = target: T1, Genome polyprotein (dengue virus type 2, UniProt P29990); assay type: functional, Thailand/16681/1984
Genome polyprotein [2] = target: T1, Genome polyprotein; assay type: functional, Thailand/16681/1984; remark: listed apart in the source

T1 sequence (P29990 1346-1475 limits assumed): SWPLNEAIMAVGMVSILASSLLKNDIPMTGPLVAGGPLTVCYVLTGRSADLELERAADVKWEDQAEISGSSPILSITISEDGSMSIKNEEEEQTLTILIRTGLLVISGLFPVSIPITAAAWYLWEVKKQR
T1 sequence (P29990 1476-2093 limits assumed): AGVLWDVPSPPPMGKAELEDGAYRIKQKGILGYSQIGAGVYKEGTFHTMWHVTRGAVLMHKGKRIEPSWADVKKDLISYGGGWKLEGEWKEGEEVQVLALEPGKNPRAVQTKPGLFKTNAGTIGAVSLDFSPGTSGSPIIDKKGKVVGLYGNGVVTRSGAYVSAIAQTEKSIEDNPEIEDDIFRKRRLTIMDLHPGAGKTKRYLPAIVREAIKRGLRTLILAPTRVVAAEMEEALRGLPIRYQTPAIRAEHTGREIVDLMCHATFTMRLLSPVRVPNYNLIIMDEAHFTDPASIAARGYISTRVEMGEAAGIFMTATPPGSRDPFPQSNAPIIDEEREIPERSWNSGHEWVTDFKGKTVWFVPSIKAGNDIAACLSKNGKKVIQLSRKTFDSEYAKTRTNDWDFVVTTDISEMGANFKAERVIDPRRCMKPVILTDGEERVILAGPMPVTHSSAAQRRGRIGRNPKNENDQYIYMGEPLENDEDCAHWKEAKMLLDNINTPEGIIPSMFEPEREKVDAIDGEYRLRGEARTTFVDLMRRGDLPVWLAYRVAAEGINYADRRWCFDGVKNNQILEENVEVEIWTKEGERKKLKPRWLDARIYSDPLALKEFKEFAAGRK

Row | SMILES | IC50 (Genome polyprotein [1]) | IC50 (Genome polyprotein [2])
1 | NCCCc1cccc(NC(=O)c2cc(Cl)cc(NC(=O)OCc3ccccc3)c2)n1 | 62.1 µM | > 100 µM
2 | CC(=O)N1CCC([C@H](NC(=O)OCc2ccccc2)C(=O)Nc2cccc(CN)c2)CC1 | > 99.5 µM | > 100 µM
3 | FC(F)(F)Oc1cc(Cl)cc2c(CN3CCC(c4cscn4)CC3)c[nH]c12 | > 99.5 µM | > 100 µM
4 | NCc1cccc(NC(=O)c2cc(Cl)cc(OC3CC3)c2)c1 | > 99.5 µM | > 100 µM
5 | CCCCSc1ccc(Cl)cc1C(=O)Nc1cccc(CN)c1 | > 99.5 µM | > 100 µM
6 | Cc1ncc(C(=O)Nc2cccc(CN)c2)cc1NC(=O)OCc1ccccc1 | > 99.5 µM | > 100 µM
7 | NCc1cccc(NC(=O)c2cc(NC(=O)OCc3ccccc3)cc3c2OCCO3)c1 | > 99.5 µM | > 100 µM
8 | NCc1cccc(NC(=O)[C@H](NC(=O)OCc2ccccc2)C2CCN(C(=O)C3CCOCC3)CC2)c1 | > 99.5 µM | > 100 µM
9 | CNCCS(=O)(=O)N1CCC([C@H](NC(=O)OCc2ccccc2)C(=O)Nc2cccc(CN)c2)CC1 | > 99.5 µM | > 100 µM
10 | CSc1cc(F)c(C(=O)Nc2cccc(CN)c2)cc1NC(=O)OCc1ccccc1 | 84.2 µM | > 100 µM
11 | CCOCC(=O)N1CCC([C@H](NC(=O)OCc2ccccc2)C(=O)Nc2cccc(CN)c2)CC1 | > 99.5 µM | > 100 µM
12 | O=C1COc2c(cccc2N2CCN(Cc3c[nH]c4ccccc34)CC2)N1 | > 99.5 µM | > 100 µM
13 | NCc1cccc(NC(=O)[C@H](NC(=O)OCc2ccccc2)C2CCN(C3CCCC3)CC2)c1 | > 99.5 µM | > 100 µM
14 | CCN(C)S(=O)(=O)N1CCC([C@H](NC(=O)OCc2ccccc2)C(=O)Nc2cccc(CN)c2)CC1 | > 99.5 µM | > 100 µM
15 | NCc1cccc(NC(=O)c2cc(NC(=O)OCc3ccccc3)cc(C(N)=O)c2)c1 | > 99.5 µM | > 100 µM
16 | NCCCc1ccccc1NC(=O)c1cc(Cl)cc(NC(=O)OCc2ccccc2)c1 | > 99.5 µM | > 100 µM
17 | CC(C)CC(=O)N1CCC([C@H](NC(=O)OCc2ccccc2)C(=O)Nc2cccc(CN)c2)CC1 | > 99.5 µM | > 100 µM
18 | COCCOc1ccc(Cl)cc1C(=O)Nc1cccc(CN)c1 | > 99.5 µM | > 100 µM
19 | NCc1cccc(NC(=O)c2cc(Cl)ccc2OC2CCCC2)c1 | > 99.5 µM | > 100 µM
20 | CC(C)N1CCC([C@H](NC(=O)OCc2ccccc2)C(=O)Nc2cccc(CN)c2)CC1 | > 99.5 µM | > 100 µM
21 | NCCc1nsc(NC(=O)c2cc(Cl)cc(NC(=O)OCc3ccccc3)c2)n1 | > 99.5 µM | > 100 µM
22 | CN(C)Cc1cccc(C(=O)Nc2cccc(CN)c2)c1 | > 99.5 µM | > 100 µM
23 | NCc1nc(CNC(=O)c2cc(Cl)cc(NC(=O)OCc3ccccc3)c2)cs1 | > 99.5 µM | > 100 µM
24 | Cc1nnc(CN2CCC([C@H](NC(=O)OCc3ccccc3)C(=O)Nc3cccc(CN)c3)CC2)s1 | > 99.5 µM | > 100 µM
25 | NCc1cccc(CS(=O)(=O)c2cc(Cl)cc(NC(=O)OCc3ccccc3)c2)c1 | > 99.5 µM | > 100 µM
26 | CS(=O)(=O)Nc1ccc(Cl)cc1C(=O)Nc1cccc(CN)c1 | > 99.5 µM | > 100 µM
27 | O=C(Nc1cc(Cl)cc(C(=O)Nc2cccc([C@H]3CCNC3)c2)c1)OCc1ccccc1 | 33.3 µM and 58.3 µM and 41.4 µM | 95.4 µM and > 100 µM

Row | SMILES | IC50 (Genome polyprotein [1]) | IC50 (Genome polyprotein [2])
28 | NCc1cccc(NC(=O)[C@H](NC(=O)OCc2ccccc2)C2CCN(Cc3ccccn3)CC2)c1 | > 99.5 µM | > 100 µM
29 | Cc1nccn1CCOc1cccc([C@H](NC(=O)OCc2ccccc2)C(=O)Nc2cccc(CN)c2)c1 | > 99.5 µM | > 100 µM
30 | NCc1cccc(NC(=O)[C@H](NC(=O)OCc2ccccc2)c2cccc(OCc3ccncc3)c2)c1 | > 99.5 µM | > 100 µM
31 | Cc1cc(CN)cc(NC(=O)c2cc(Cl)cc(NC(=O)OCc3ccccc3)c2)c1 | 42.2 µM | > 100 µM
32 | CCN1CC[C@H](COc2cccc([C@H](NC(=O)OCc3ccccc3)C(=O)Nc3cccc(CN)c3)c2)C1 | > 99.5 µM | > 100 µM
33 | NC12CCC(CNC(=O)c3cc(Cl)cc(NC(=O)OCc4ccccc4)c3)(CC1)OC2 | > 99.5 µM | > 100 µM
34 | Clc1ccc(-c2cc(CN3CCC(c4cscn4)CC3)[nH]n2)cc1 | > 99.5 µM | > 100 µM
35 | NCc1cccc(NC(=O)c2cc(Cl)cc(F)c2F)c1 | > 99.5 µM | > 100 µM
36 | CCS(=O)(=O)c1ccc(Cl)cc1C(=O)Nc1cccc(CN)c1 | > 99.5 µM | > 100 µM
37 | Cn1cc(C(=O)N2CCC([C@H](NC(=O)OCc3ccccc3)C(=O)Nc3cccc(CN)c3)CC2)cn1 | > 99.5 µM | > 100 µM
38 | Cn1nc([C@@H]2CCCN2)nc1NC(=O)c1cc(Cl)cc(NC(=O)OCc2ccccc2)c1 | > 99.5 µM | > 100 µM
39 | CC(C)(C#N)CS(=O)(=O)N1CCC([C@H](NC(=O)OCc2ccccc2)C(=O)Nc2cccc(CN)c2)CC1 | > 99.5 µM | > 100 µM
40 | NCCCc1ccnc(NC(=O)c2cc(Cl)cc(NC(=O)OCc3ccccc3)c2)c1 | 48.2 µM | > 100 µM
41 | NCc1cccc(NC(=O)[C@H](NC(=O)OCc2ccccc2)C2CCN(C(=O)c3ccco3)CC2)c1 | > 99.5 µM | > 100 µM
42 | NCc1cccc(NC(=O)c2cc(NC(=O)OCc3ccccc3)cc(C(F)(F)F)c2F)c1 | > 99.5 µM | > 100 µM
43 | O=c1ccc(N2CCN(Cc3c[nH]c4ccccc34)CC2)n[nH]1 | > 99.5 µM | > 100 µM
44 | NCc1cccc(NC(=O)c2cc(Cl)cc(C3CC3)c2)c1 | > 99.5 µM | > 100 µM
45 | NCc1cccc(NC(=O)c2cc3c(c(NC(=O)OCc4ccccc4)c2)OCC3)c1 | > 99.5 µM | > 100 µM
46 | NCc1cccc(NC(=O)c2cc(Cl)cc(N3CCCC3=O)c2)c1 | > 99.5 µM | > 100 µM
47 | Cc1c(CN)cccc1NC(=O)c1cc(Cl)cc(NC(=O)OCc2ccccc2)c1 | > 99.5 µM | > 100 µM
48 | NCc1cccc(NC(=O)[C@H](NC(=O)OCc2ccccc2)C2CCN(S(=O)(=O)c3cccnc3)CC2)c1 | > 99.5 µM | > 100 µM
49 | NCc1cccc(NC(=O)c2cc(Cl)cc3c2NCCC3)c1 | > 99.5 µM | > 100 µM
50 | O=C(Nc1cc(Cl)cc(C(=O)NCc2n[nH]c3c2CNCC3)c1)OCc1ccccc1 | > 99.5 µM | > 100 µM
51 | CC(C)N1C(=O)C[C@H](C(=O)Nc2cccc(CN)c2)[C@H]1c1ccc(Cl)c(F)c1 | > 99.5 µM | > 100 µM
52 | NCc1cccc(NC(=O)c2cc(Cl)cc3c2OCCNC3)c1 | > 99.5 µM | > 100 µM
53 | c1cnc2[nH]cc(C3CCN(Cc4c[nH]c5ccncc45)CC3)c2c1 | > 99.5 µM | > 100 µM
54 | Oc1cc(N2CCN(Cc3c[nH]c4ccccc34)CC2)ccn1 | > 99.5 µM | > 100 µM

Row | SMILES | IC50 (Genome polyprotein [1]) | IC50 (Genome polyprotein [2])
55 | O=C(Nc1cc(Cl)cc(C(=O)Nc2cccc3c2CNC3)c1)OCc1ccccc1 | > 99.5 µM | > 100 µM
56 | CN(C)Cc1cccc(NC(=O)[C@H](NC(=O)OCc2ccccc2)c2ccc(OCc3ccccc3)cc2)c1 | > 99.5 µM | > 100 µM
57 | NCc1cccc(NC(=O)[C@H](NC(=O)OCc2ccccc2)c2cccc(OC[C@H]3COCCO3)c2)c1 | > 99.5 µM | > 100 µM
58 | NCc1cccc(NC(=O)[C@H](NC(=O)OCc2ccccc2)C2CCN(C(=O)C3CCCCC3)CC2)c1 | > 99.5 µM | > 100 µM
59 | NCc1cccc(NC(=O)c2cc(Cl)cc3c2OCC3)c1 | > 99.5 µM | > 100 µM
60 | NCc1ccc(O)c(NC(=O)c2cc(Cl)cc(NC(=O)OCc3ccccc3)c2)c1 | 74.5 µM | > 100 µM
61 | NCc1cccc(NC(=O)[C@H](NC(=O)OCc2ccccc2)C2CCN(C(=O)Cc3ccccc3)CC2)c1 | > 99.5 µM | > 100 µM
62 | c1nc(C2CCN(Cc3cc(C4CCOCC4)[nH]n3)CC2)cs1 | > 99.5 µM | > 100 µM
63 | COc1cc(NC(=O)OCc2ccccc2)cc(C(=O)Nc2cccc(CN)c2)c1OC | > 99.5 µM | > 100 µM
64 | CN(C)CCOc1ccc(Cl)cc1C(=O)Nc1cccc(CN)c1 | > 99.5 µM | > 100 µM
65 | N#Cc1cccc2[nH]cc(CN3CCC(c4cscn4)CC3)c12 | > 99.5 µM | > 100 µM
66 | O=C1Nc2ncccc2C[C@H]1NCc1n[nH]c2ccccc12 | > 99.5 µM | > 100 µM
67 | Cc1ccc(NC(=O)c2cc(Cl)cc(NC(=O)OCc3ccccc3)c2)cc1CN | > 99.5 µM and 95.8 µM | > 100 µM
68 | NCc1cccc(NC(=O)[C@H](NC(=O)OCc2ccccc2)C2CCN(C(=O)c3ccccc3)CC2)c1 | > 99.5 µM | > 100 µM
69 | CCCCS(=O)(=O)N1CCC([C@H](NC(=O)OCc2ccccc2)C(=O)Nc2cccc(CN)c2)CC1 | > 99.5 µM | 99 µM
70 | CN1C(=O)C[C@H](C(=O)Nc2cccc(CN)c2)[C@H]1c1ccc(Cl)c(Cl)c1 | > 99.5 µM | > 100 µM
71 | c1cncc(-c2cc(CN3CCC(c4cscn4)CC3)n[nH]2)c1 | > 99.5 µM | > 100 µM
72 | Cc1ncc(NC(=O)OCc2ccccc2)cc1C(=O)Nc1cccc(CN)c1 | > 99.5 µM | > 100 µM
73 | NCc1cn(CCNC(=O)c2cc(Cl)cc(NC(=O)OCc3ccccc3)c2)nn1 | > 99.5 µM | > 100 µM
74 | Cc1ocnc1COc1cccc([C@H](NC(=O)OCc2ccccc2)C(=O)Nc2cccc(CN)c2)c1 | > 99.5 µM | > 100 µM
75 | CCOCCS(=O)(=O)N1CCC([C@H](NC(=O)OCc2ccccc2)C(=O)Nc2cccc(CN)c2)CC1 | > 99.5 µM | > 100 µM
76 | N#Cc1cccc(N2CCN(Cc3c[nH]c4ccccc34)CC2)c1 | > 99.5 µM | > 100 µM
77 | NCc1cccc(NC(=O)[C@H](NC(=O)OCc2ccccc2)C2CCN(CCc3ccccc3)CC2)c1 | > 99.5 µM | > 100 µM
78 | Cn1ncc(CN2CCC([C@H](NC(=O)OCc3ccccc3)C(=O)Nc3cccc(CN)c3)CC2)n1 | > 99.5 µM | > 100 µM
79 | COCCN1C(=O)C[C@H](C(=O)Nc2cccc(CN)c2)[C@H]1c1ccc(Cl)c(F)c1 | > 99.5 µM | > 100 µM
80 | NCc1cccc(NC(=O)c2cc(Cl)cc3c2CCC3)c1 | > 99.5 µM | > 100 µM
